Data as given in patent US20230147993A1, “THIOPHENE COMPOUNDS WITH CYCLIC AMIDES, AND USES THEREOF” (Capulus Therapeutics, LLC, priority 2019, published 2023).

Tests used:
SREBP = test: Reporter Screening Assay (SRE-luciferase reporter, HepG2); type: cell-based; details: Homo sapiens, SREBPv1 Reporter cell line HepG2, 24 hours, 0.01 uM to 10 uM, read-out: I: Reporter Screening Assay (Ave EC50 (nM))
Protocol: Reporter Screening Assay: This assay was used to evaluate the effect on transcriptional activity SREBP of selected compounds using an SRE-luciferase reporter construct. On day 1, 10,000 cells were seeded in a 96 well (white) plate as per the plate map in Growth media without antibiotics. Cells were incubated at 37° C. for 8 hours. After 8 hours, cells were washed with DPBS for complete removal of FBS. DPBS was completely removed and Growth media was replaced with phenol free treatment medium (90 μl) with different FBS concentrations. The cells were then incubated at 37° C. for 24 hours with varying doses (0.01 uM to 10 uM) of compounds. Then a Luciferase assay was performed.
Reagents for performing Luciferase assay were stored at −20° C. To a tube of lyophilized assay substrate was added 1 mL Substrate Solvent and mixed well. The Substrate tube after reconstitution was covered with aluminum foil so as to keep it protected from light. The assay buffer was thawed to room temperature. To 20 mL Assay Buffer was added 200 µL of reconstituted 100× Substrate and mixed well. The reconstituted substrate as well as the assay solution (buffer + substrate) was protected from light throughout the procedure by keeping it covered with aluminum foil. Using a multi-channel pipette, 100 μL Assay Solution (buffer + substrate) was added directly to each sample well in Plate 1, which was incubated for 30 min (plate was covered with aluminum foil). After 30 min incubation, the plate was read for total luminescence. Each well was read for 2 seconds in a plate luminometer. (Microplate reader Envision Microplate reader from Perkin Elmer). Precaution was taken to incubate plate exactly for 30 min prior to reading on the plate reader.
Reporter Assay Materials: SREBPv1 Reporter cell line: HepG2-#32251. Growth Medium: MEM (Corning 10-010), 10% FBS, 1% GlutaMax (Invitrogen Catalog #35050061), […] (Invitrogen Catalog #A1113803) and 1% Penicillin-Streptomycin (Pen-Strep). Treatment Media: Phenol-free MEM (Invitrogen Catalog #51200-038) and 1% GlutaMax (Invitrogen Catalog #35050061). Luciferase Assay: LightSwitch Luciferase Assay Kit (Catalog #32032). LDH assay: Pierce LDH Cytotoxicity Assay Kit (Catalog #SD249616).

[1] = Stability in mouse liver microsomes; type: in vitro ADME
Protocol: (§1) Half-life Human Microsomes: Compounds were evaluated for stability in human liver microsomes. A 10 mM stock solution of the compound being evaluated was prepared in DMSO and diluted with water:acetonitrile (1:1) to a concentration of 1 mM. A working concentration of 100 μM was prepared by further dilution with water:acetonitrile (1:1). To make the preincubation mixture, 2.5 μL of the diluted compound was combined with 75 μL of human liver microsomes at 3.33 mg/mL, and 85 μL of 100 mM potassium phosphate buffer, and this mixture was pre-incubated for 10 min at 37° C. To make the 60 minute mixture without cofactor, 32.5 μL of the preincubation mixture was combined with 17.5 μL of 100 mM potassium phosphate buffer and incubated for 60 min at 37° C. To make the 0 min sample with cofactor (NADPH), 16.25 μL of the preincubation mixture was combined with 200 μL of acetonitrile containing internal standard and 8.75 μL of cofactor (NADPH). To make the incubation mixture, 62 μL of cofactor (2.85 mM) was combined with the remaining incubation mixture, and incubated for 60 min at 37° C. To prepare the sample mixture to be evaluated, 25 μL incubation mixture was combined with 200 μL of acetonitrile containing internal standard and vortexed for 5 min at 1200 rpm, then centrifuged for 10 min at 4000 rpm. The supernatant was diluted 2 fold with water and injected on LC-MS/MS. The sample mixture was evaluated by LC-MS/MS using 10 mM ammonium acetate with 0.1% FA as the aqueous mobile phase, and methanol as the organic mobile phase.
Half-life Mouse Microsomes: Compounds were evaluated in mouse liver microsomes following a similar procedure as described above for human liver microsomes. A similar procedure could be used to evaluate compounds in rat liver microsomes.

[2] = Stability in human liver microsomes; type: in vitro ADME; details: 60 min at 37° C., NADPH
Protocol: as §1

ACACA = test: Gene expression in HepG2 cells (qPCR), ACACA; type: cell-based; details: for 48 hours, normalized to β-Actin, relative to mock or vehicle treated cells (ΔΔCT)
Protocol: Gene Expression: The effect of selected compounds on the gene expression of HepG2 cells was evaluated. HepG2 cells (P2) were seeded in 24 well plate (80,000 cells/well) for RNA extraction and in a 96 well plate (10,000 cells/well) for Cell Titer Glow (CTG). The media used was DMEM and contained 10% FBS. Each compound was evaluated at […] for 48 hours. Two biological replicates per experimental group were evaluated for RNA. For gene analysis, RNA was harvested with RNEasy kit and 20-100 ng used to synthesize cDNA with random primers. Quantitative PCR was performed on 1 pg to 100 ng cDNA for the following genes: ACACA, ACLY, FASN, LSS, PNPLA3. Gene expression levels were normalized with housekeeping gene, β-Actin, and relative expression levels determined using ΔΔCT method comparing treated to mock or vehicle treated cells as a baseline. “Total” gene expression refers to the average of the values of the 5 genes listed above.

Row | Structure (SMILES) | EC50 (SREBP) [nM] | percent remaining after 60 min in mouse liver microsomes [1] | percent remaining after 60 min in human liver microsomes [2] | A: ACACA, effect of compounds on gene expression of HepG2 cells (ACACA)
1 | O=C(c1ccc(-c2cc(-c3ccnc(OC4CC4)c3)cs2)c(Cl)c1)N1CCC(O)CC1 [Compound I-1629059, (3-chloro-4-(4-(2-cyclopropoxypyridin-4-yl)thiophen-2-yl)phenyl)(4-hydroxypiperidin-1-yl)methanone] | < 249 | +++ (≥60.1 = +++) | +++ (≥60.1 = +++) | ++ (0.31-0.7509 = ++)
2 | O=C(c1ccc(-c2cc(-c3ccnc4c3OCCO4)cs2)c(Cl)c1)N1CCC(O)CC1 [Compound I-1629066, (3-chloro-4-(4-(2,3-dihydro-[1,4]dioxino[2,3-b]pyridin-8-yl)thiophen-2-yl)phenyl)(4-hydroxypiperidin-1-yl)methanone] | < 249 | ++ (30.1-60 = ++) | ++ (30.1-60 = ++) | ++ (0.31-0.7509 = ++)
3 | O=C(c1ccc(-c2cc(-c3ccnc4c3OCCN4)cs2)c(Cl)c1)N1CCC(O)CC1 [Compound I-1629067, (3-chloro-4-(4-(3,4-dihydro-2H-pyrido[3,2-b][1,4]oxazin-8-yl)thiophen-2-yl)phenyl)(4-hydroxypiperidin-1-yl)methanone] | < 249 | + (0-30 = +) | + (0-30 = +) | ++ (0.31-0.7509 = ++)
4 | O=C(c1ccc(-c2cc(-c3ccnc4c3NCCN4)cs2)c(Cl)c1)N1CCC(O)CC1 [Compound I-1629068, (3-chloro-4-(4-(l,2,3,4-tetrahydropyrido[2,3-b]pyrazin-8-yl)thiophen-2-yl)phenyl)(4-hydroxypiperidin-1-yl)methanone] | < 249 | + (0-30 = +) | ++ (30.1-60 = ++) | ++ (0.31-0.7509 = ++)
5 | CC1(O)CCN(C(=O)c2ccc(-c3cc(-c4ccnc(C5(CO)CC5)c4)cs3)c(Cl)c2)CC1 [Compound I-1629069, (3-chloro-4-(4-(2-(l-(hydroxymethyl)cyclopropyl)pyridin-4-yl)thiophen-2-yl)phenyl)(4-hydroxy-4-methylpiperidin-1-yl)methanone] | > 500 | + (0-30 = +) | + (0-30 = +) | + (>0.751 = +)
6 | O=C(c1ccc(-c2cc(-c3ccnc(C4(O)CCC4)c3)cs2)c(Cl)c1)N1CCC(O)CC1 [Compound I-1629076, (3-chloro-4-(4-(2-(1-hydroxycyclobutyl)pyridin-4-yl)thiophen-2-yl)phenyl)(4-hydroxypiperidin-1-yl)methanone] | < 249 | +++ (≥60.1 = +++) | +++ (≥60.1 = +++) | ++ (0.31-0.7509 = ++)
7 | O=C(c1ccc(-c2cc(-c3ccnc(CC4(O)CCC4)c3)cs2)c(Cl)c1)N1CCC(O)CC1 [Compound I-1629077, (3-chloro-4-(4-(2-((1-hydroxycyclobutyl)methyl)pyridin-4-yl)thiophen-2-yl)phenyl)(4-hydroxypiperidin-1-yl)methanone] | < 249 | ++ (30.1-60 = ++) | + (0-30 = +) | ++ (0.31-0.7509 = ++)
8 | O=C(c1ccc(-c2cc(-c3ccnc(CC4(F)CCC4)c3)cs2)c(Cl)c1)N1CCC(O)CC1 [Compound I-1629078, (3-chloro-4-(4-(2-((1-fluorocyclobutyl)methyl)pyridin-4-yl)thiophen-2-yl)phenyl)(4-hydroxypiperidin-1-yl)methanone] | < 249 | +++ (≥60.1 = +++) | + (0-30 = +) | ++ (0.31-0.7509 = ++)
9 | O=C(c1ccc(-c2cc(-c3ccnc(C4(O)COC4)c3)cs2)c(Cl)c1)N1CCC(O)CC1 [Compound I-1629083, (3-chloro-4-(4-(2-(3-hydroxyoxetan-3-yl)pyridin-4-yl)thiophen-2-yl)phenyl)(4-hydroxypiperidin-1-yl)methanone] | 250 to 500 | +++ (≥60.1 = +++) | +++ (≥60.1 = +++) | + (>0.751 = +)
10 | O=C(c1ccc(-c2cc(-c3ccnc4c3NCCO4)cs2)c(Cl)c1)N1CCC(O)CC1 [Compound I-1629084, (3-chloro-4-(4-(2,3-dihydro-1H-pyrido[2,3-b][l,4]oxazin-8-yl)thiophen-2-yl)phenyl)(4-hydroxypiperidin-1-yl)methanone] | < 249 | ++ (30.1-60 = ++) | + (0-30 = +) | ++ (0.31-0.7509 = ++)
